Data: PubChem BioAssay AID2060899 (Molecular Pharmacology Branch, DTP, NCI, 2025)

Test system: 565726-208-R1-J5-PDC complex spheroids, growth inhibition
Assay: Anticancer human tumor 565726-208-R1-J5-PDC patient-derived pancreatic adenocarcinoma cell line growth inhibition [RAS]
Settings: for viability, T/C: stronger effect = lower value
Summary of the method: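 Tumour cells grown as complex spheroids with HUVEC endothelial cells and mesenchymal stem cells, treated with RAS pathway inhibitor combinations. Each agent spans half-log steps from near clinical Cmax, or 10 microM where Cmax is unknown.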

[1] = curve of first compound, second compound 0.000949 µM
[2] = curve of first compound, second compound 0.003 µM
[3] = curve of first compound, second compound 0.00949 µM
[4] = curve of first compound, second compound 0.03 µM
[5] = curve of first compound, second compound 0.0949 µM
[6] = curve of first compound, second compound 0.3 µM
[7] = second compound 0.000949 µM, first compound 0.00316 µM
[8] = second compound 0.000949 µM, first compound 0.01 µM
[9] = second compound 0.000949 µM, first compound 0.0316 µM
[10] = second compound 0.000949 µM, first compound 0.1 µM
[11] = second compound 0.000949 µM, first compound 0.316 µM
[12] = second compound 0.000949 µM, first compound 1 µM
[13] = second compound 0.003 µM, first compound 0.00316 µM
[14] = second compound 0.003 µM, first compound 0.01 µM
[15] = second compound 0.003 µM, first compound 0.0316 µM
[16] = second compound 0.003 µM, first compound 0.1 µM
[17] = second compound 0.003 µM, first compound 0.316 µM
[18] = second compound 0.003 µM, first compound 1 µM
[19] = second compound 0.00949 µM, first compound 0.00316 µM
[20] = second compound 0.00949 µM, first compound 0.01 µM
[21] = second compound 0.00949 µM, first compound 0.0316 µM
[22] = second compound 0.00949 µM, first compound 0.1 µM
[23] = second compound 0.00949 µM, first compound 0.316 µM
[24] = second compound 0.00949 µM, first compound 1 µM
[25] = second compound 0.03 µM, first compound 0.00316 µM
[26] = second compound 0.03 µM, first compound 0.01 µM
[27] = second compound 0.03 µM, first compound 0.0316 µM
[28] = second compound 0.03 µM, first compound 0.1 µM
[29] = second compound 0.03 µM, first compound 0.316 µM
[30] = second compound 0.03 µM, first compound 1 µM
[31] = second compound 0.0949 µM, first compound 0.00316 µM
[32] = second compound 0.0949 µM, first compound 0.01 µM
[33] = second compound 0.0949 µM, first compound 0.0316 µM
[34] = second compound 0.0949 µM, first compound 0.1 µM
[35] = second compound 0.0949 µM, first compound 0.316 µM
[36] = second compound 0.0949 µM, first compound 1 µM
[37] = second compound 0.3 µM, first compound 0.00316 µM
[38] = second compound 0.3 µM, first compound 0.01 µM
[39] = second compound 0.3 µM, first compound 0.0316 µM
[40] = second compound 0.3 µM, first compound 0.1 µM
[41] = second compound 0.3 µM, first compound 0.316 µM
[42] = second compound 0.3 µM, first compound 1 µM
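Note: spheroids exposed to compounds for seven days before readout.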
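Throughout, for viability, T/C: 100% = DMSO vehicle control viability.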

Q: With Nc1ccn(C2OC(CO)C(O)C2(F)F)c(=O)n1 (stereo not drawn) + CCn1c(-c2cccnc2C(C)OC)c2c3cc(ccc31)N1CCOC(CC(NC(=O)C(C(C)C)N(C)C(=O)C3(F)CCN(C(=O)C#CC(C)(C)N(C)C)CC3)C(=O)N3CCCC(N3)C(=O)OCC(C)(C)C2)C1 as the compound, how does the IC50 [1] read?
A: The IC50 was 82.4 nM.

Q: What about the IC50 [2] of the same compound?
A: Its IC50 is 77.2 nM.

Q: And the IC50 [3]?
A: The IC50 was 72.3 nM.

Q: And the IC50 [4]?
A: The IC50 was 70.4 nM.

Q: And the IC50 [5]?
A: Its IC50 is 77.2 nM.

Q: What about the IC50 [6] of the same compound?
A: The IC50 was 44 nM.

Q: What about the viability, T/C [7] of the same compound?
A: The viability, T/C was 107%.

Q: What about the viability, T/C [8] of the same compound?
A: The viability, T/C was 91.8%.

Q: And the viability, T/C [9]?
A: Its viability, T/C is 68.1%.

Q: What about the viability, T/C [10] of the same compound?
A: The viability, T/C was 47%.

Q: What about the viability, T/C [11] of the same compound?
A: Its viability, T/C is 32.3%.

Q: What about the viability, T/C [12] of the same compound?
A: The viability, T/C was 27.9%.

Q: What about the viability, T/C [13] of the same compound?
A: Its viability, T/C is 110%.

Q: What about the viability, T/C [14] of the same compound?
A: The viability, T/C was 88.6%.

Q: What about the viability, T/C [15] of the same compound?
A: Its viability, T/C is 69.2%.

Q: What about the viability, T/C [16] of the same compound?
A: Its viability, T/C is 40.9%.

Q: And the viability, T/C [17]?
A: Its viability, T/C is 38.6%.

Q: And the viability, T/C [18]?
A: Its viability, T/C is 29.6%.

Q: And the viability, T/C [19]?
A: Its viability, T/C is 97.5%.

Q: What about the viability, T/C [20] of the same compound?
A: Its viability, T/C is 91.2%.

Q: What about the viability, T/C [21] of the same compound?
A: Its viability, T/C is 66%.

Q: What about the viability, T/C [22] of the same compound?
A: The viability, T/C was 42.5%.

Q: And the viability, T/C [23]?
A: Its viability, T/C is 36.1%.

Q: And the viability, T/C [24]?
A: The viability, T/C was 26.2%.

Q: And the viability, T/C [25]?
A: The viability, T/C was 90.1%.

Q: What about the viability, T/C [26] of the same compound?
A: The viability, T/C was 90.2%.

Q: What about the viability, T/C [27] of the same compound?
A: The viability, T/C was 62.7%.

Q: And the viability, T/C [28]?
A: The viability, T/C was 43.3%.

Q: What about the viability, T/C [29] of the same compound?
A: The viability, T/C was 33.6%.

Q: What about the viability, T/C [30] of the same compound?
A: The viability, T/C was 22.8%.

Q: What about the viability, T/C [31] of the same compound?
A: The viability, T/C was 85.1%.

Q: And the viability, T/C [32]?
A: Its viability, T/C is 88.4%.

Q: And the viability, T/C [33]?
A: The viability, T/C was 71.9%.

Q: What about the viability, T/C [34] of the same compound?
A: The viability, T/C was 43%.

Q: What about the viability, T/C [35] of the same compound?
A: The viability, T/C was 31.4%.

Q: What about the viability, T/C [36] of the same compound?
A: The viability, T/C was 24.4%.

Q: What about the viability, T/C [37] of the same compound?
A: The viability, T/C was 81.8%.

Q: What about the viability, T/C [38] of the same compound?
A: Its viability, T/C is 75.4%.

Q: And the viability, T/C [39]?
A: Its viability, T/C is 52.6%.

Q: What about the viability, T/C [40] of the same compound?
A: The viability, T/C was 37.6%.

Q: And the viability, T/C [41]?
A: The viability, T/C was 30.8%.

Q: And the viability, T/C [42]?
A: The viability, T/C was 21.2%.

Q: For CCN1CCN(Cc2ccc(Nc3ncc(F)c(-c4cc(F)c5nc(C)n(C(C)C)c5c4)n3)nc2)CC1 + CCn1c(-c2cccnc2C(C)OC)c2c3cc(ccc31)N1CCOC(CC(NC(=O)C(C(C)C)N(C)C(=O)C3(F)CCN(C(=O)C#CC(C)(C)N(C)C)CC3)C(=O)N3CCCC(N3)C(=O)OCC(C)(C)C2)C1, which IC50 [1] is on record?
A: Its IC50 is greater than 1000 nM.

Q: What about the IC50 [2] of the same compound?
A: Its IC50 is greater than 1000 nM.

Q: What about the IC50 [3] of the same compound?
A: The IC50 was greater than 1000 nM.

Q: What about the IC50 [4] of the same compound?
A: The IC50 was greater than 1000 nM.

Q: What about the IC50 [5] of the same compound?
A: Its IC50 is greater than 1000 nM.

Q: And the IC50 [6]?
A: Its IC50 is greater than 1000 nM.

Q: And the viability, T/C [7]?
A: Its viability, T/C is 93.5%.

Q: What about the viability, T/C [8] of the same compound?
A: The viability, T/C was 91.2%.

Q: And the viability, T/C [9]?
A: The viability, T/C was 80.6%.

Q: And the viability, T/C [10]?
A: The viability, T/C was 74%.

Q: What about the viability, T/C [11] of the same compound?
A: Its viability, T/C is 59.3%.

Q: What about the viability, T/C [12] of the same compound?
A: Its viability, T/C is 56.2%.

Q: And the viability, T/C [13]?
A: The viability, T/C was 105%.

Q: What about the viability, T/C [14] of the same compound?
A: Its viability, T/C is 96%.

Q: What about the viability, T/C [15] of the same compound?
A: Its viability, T/C is 84.3%.

Q: What about the viability, T/C [16] of the same compound?
A: The viability, T/C was 74.7%.

Q: And the viability, T/C [17]?
A: The viability, T/C was 60.4%.

Q: What about the viability, T/C [18] of the same compound?
A: The viability, T/C was 61%.

Q: What about the viability, T/C [19] of the same compound?
A: The viability, T/C was 97.7%.

Q: What about the viability, T/C [20] of the same compound?
A: The viability, T/C was 89.8%.

Q: And the viability, T/C [21]?
A: The viability, T/C was 84.4%.

Q: And the viability, T/C [22]?
A: Its viability, T/C is 69.4%.

Q: And the viability, T/C [23]?
A: Its viability, T/C is 64.3%.

Q: What about the viability, T/C [24] of the same compound?
A: The viability, T/C was 56%.

Q: What about the viability, T/C [25] of the same compound?
A: Its viability, T/C is 91.5%.

Q: And the viability, T/C [26]?
A: The viability, T/C was 94.3%.

Q: And the viability, T/C [27]?
A: The viability, T/C was 85.1%.

Q: What about the viability, T/C [28] of the same compound?
A: The viability, T/C was 72.7%.

Q: And the viability, T/C [29]?
A: Its viability, T/C is 62%.

Q: And the viability, T/C [30]?
A: The viability, T/C was 57.4%.

Q: And the viability, T/C [31]?
A: Its viability, T/C is 95%.

Q: And the viability, T/C [32]?
A: Its viability, T/C is 94.7%.

Q: And the viability, T/C [33]?
A: Its viability, T/C is 85.7%.

Q: And the viability, T/C [34]?
A: Its viability, T/C is 67.9%.

Q: And the viability, T/C [35]?
A: Its viability, T/C is 54.1%.

Q: What about the viability, T/C [36] of the same compound?
A: The viability, T/C was 59.5%.

Q: And the viability, T/C [37]?
A: Its viability, T/C is 85%.

Q: And the viability, T/C [38]?
A: The viability, T/C was 82.1%.

Q: What about the viability, T/C [39] of the same compound?
A: The viability, T/C was 76.5%.

Q: What about the viability, T/C [40] of the same compound?
A: Its viability, T/C is 64.1%.

Q: And the viability, T/C [41]?
A: Its viability, T/C is 56.2%.

Q: What about the viability, T/C [42] of the same compound?
A: The viability, T/C was 55.3%.

Q: For CC(C)NCC(C(=O)N1CCN(c2ncnc3c2C(C)CC3O)CC1)c1ccc(Cl)cc1 (stereo not drawn), which viability, T/C (compound 0.0316 µM) is on record?
A: The viability, T/C was 97.9% [middle of 4 runs].

Q: And the viability, T/C (compound 0.1 µM)?
A: The viability, T/C was 100% [middle of 4 runs].

Q: What about the viability, T/C (compound 1 µM) of the same compound?
A: The viability, T/C was 88.7% [middle of 4 runs].

Q: What about the IC50 (curve of compound) of the same compound?
A: The IC50 was greater than 10000 nM.
